Experimental data taken from US10967078B2, “Radiolabelled mGluR2 PET ligands” (Janssen Pharmaceutica NV, priority 2014, dated 2021).

Test: Biodistribution studies in normal female Wistar rats
Format: in vivo, rat
Conditions: for % ID blood / SUV blood / % ID bone / SUV bone / % ID carcass / % ID cerebellum / SUV cerebellum / SUV cerebrum + cerebellum / % ID cerebrum total / % ID cortex / SUV cortex / % ID heart / % ID hippocampus / SUV hippocampus / % ID intestines / % ID kidneys / % ID liver / % ID lungs / % ID muscle / SUV muscle / % ID rest of cerebrum / SUV rest of cerebrum / % ID spleen + pancreas / % ID stomach / % ID striatum / SUV striatum / % ID urine / SUV whole cerebrum: mean n=3; for SUV cerebrum + cerebellum / Total brain uptake: cerebrum + cerebellum; for Total brain uptake: n=3
Method: High-performance liquid chromatography (HPLC) analysis was performed on a LaChrom Elite® HPLC system (Hitachi, Armstadt, Germany) connected to a UV spectrometer. For the analysis of radiolabeled compounds, the HPLC eluate, after passage through the UV detector, was led over a shielded 3-inch NaI(Tl) scintillation detector connected to a single channel analyser (Gabi box, Raytest, Straubenhardt, Germany). The output signal was recorded and analysed using a GINA Star data acquisition system (Raytest, Straubenhardt, Germany). Radioactivity in samples of biodistribution studies was quantified using an automated gamma counter equipped with a 3-inch NaI(Tl) well crystal coupled to a multichannel analyser (Wallac 2480 Wizard, Wallac, Turku, Finland). Results were corrected for background radiation, physical decay and counter dead time. Animals were housed in individually ventilated cages in a thermoregulated (˜22° C.), humidity-controlled facility under a 12 h/12 h light/dark cycle with access to food and water ad libitum. All animal experiments were conducted according to the Belgian code of practice for the care and use of animals, after approval from the local University Ethics Committee for Animals.
Biodistribution studies of [^11C]-2 and [^11C]-1 were carried out in healthy female Wister rats (body weight 185-220 g) at 2 min, 30 min and 60 min post injection (p.i.) (n=3/time point). Rats were injected with about 18 MBq of the tracer via a tail vein under anesthesia (2.5% isoflurane in O2 at 1 L/min flow rate) and sacrificed by decapitation at the above specified time points. Blood and major organs were collected in tared tubes and weighed. The radioactivity in blood, organs and other body parts was measured using an automated gamma counter. For calculation of total blood radioactivity, blood mass was assumed to be 7% of the body mass. For calculation of total muscle and total bone radioactivity, muscle and bone mass were assumed to be 40% and 12% of the body mass, respectively.

SMILES: C[C@H]1CN(c2ccc(C(F)(F)F)cc2)C(=O)c2c(-c3ccnc(N[11CH3])c3)cnn21 [[^11C]-2]
- 2 min - to- 30 min wash-out ratio (blood): 1.75
- % ID blood (blood, 2 min p.i.): 4.9 % ID
- SUV blood (blood, 2 min p.i.): 0.70 SUV
- % ID blood (blood, 30 min p.i.): 2.8 % ID
- SUV blood (blood, 30 min p.i.): 0.40 SUV
- % ID blood (blood, 60 min p.i.): 2.0 % ID
- SUV blood (blood, 60 min p.i.): 0.29 SUV
- 2 min - to- 30 min wash-out ratio (bone): 1.34
- % ID bone (bone, 2 min p.i.): 7.0 % ID
- SUV bone (bone, 2 min p.i.): 0.59 SUV
- % ID bone (bone, 30 min p.i.): 4.9 % ID
- SUV bone (bone, 30 min p.i.): 0.44 SUV
- % ID bone (bone, 60 min p.i.): 4.2 % ID
- SUV bone (bone, 60 min p.i.): 0.37 SUV
- % ID carcass (2 min p.i.): 39.5 % ID
- % ID carcass (30 min p.i.): 49.9 % ID
- % ID carcass (60 min p.i.): 44.8 % ID
- 2 min - to- 30 min wash-out ratio (cerebellum): 2.85
- % ID cerebellum (cerebellum, 2 min p.i.): 0.279 % ID
- SUV cerebellum (cerebellum, 2 min p.i.): 1.78 SUV
- % ID cerebellum (cerebellum, 30 min p.i.): 0.084 % ID
- SUV cerebellum (cerebellum, 30 min p.i.): 0.62 SUV
- % ID cerebellum (cerebellum, 60 min p.i.): 0.058 % ID
- SUV cerebellum (cerebellum, 60 min p.i.): 0.45 SUV
- SUV cerebrum + cerebellum (2 min p.i.): 1.80 SUV
- Total brain uptake (2 min p.i.): 1.4 % ID
- Total brain uptake (2 min p.i., listed as [^11C-2]): 1.44 ± 0.24 % ID
- SUV cerebrum + cerebellum (30 min p.i.): 0.67 SUV
- Total brain uptake (30 min p.i.): 0.50 ± 0.05 % ID
- SUV cerebrum + cerebellum (60 min p.i.): 0.49 SUV
- Total brain uptake (60 min p.i.): 0.38 ± 0.03 % ID
- % ID cerebrum total (2 min p.i.): 1.153 % ID
- % ID cerebrum total (30 min p.i.): 0.408 % ID
- % ID cerebrum total (60 min p.i.): 0.316 % ID
- 2 min - to- 30 min wash-out ratio (cortex): 3.04
- % ID cortex (cortex, 2 min p.i.): 0.064 % ID
- SUV cortex (cortex, 2 min p.i.): 2.23 SUV
- % ID cortex (cortex, 30 min p.i.): 0.024 % ID
- SUV cortex (cortex, 30 min p.i.): 0.74 SUV
- % ID cortex (cortex, 60 min p.i.): 0.014 % ID
- SUV cortex (cortex, 60 min p.i.): 0.58 SUV
- % ID heart (2 min p.i.): 1.0 % ID
- % ID heart (30 min p.i.): 0.4 % ID
- % ID heart (60 min p.i.): 0.3 % ID
- 2 min - to- 30 min wash-out ratio (hippocampus): 2.31
- % ID hippocampus (hippocampus, 2 min p.i.): 0.046 % ID
- SUV hippocampus (hippocampus, 2 min p.i.): 1.49 SUV
- % ID hippocampus (hippocampus, 30 min p.i.): 0.018 % ID
- SUV hippocampus (hippocampus, 30 min p.i.): 0.64 SUV
- % ID hippocampus (hippocampus, 60 min p.i.): 0.016 % ID
- SUV hippocampus (hippocampus, 60 min p.i.): 0.49 SUV
- % ID intestines (2 min p.i.): 12.2 % ID
- % ID intestines (30 min p.i.): 19.4 % ID
- % ID intestines (60 min p.i.): 24.2 % ID
- % ID kidneys (2 min p.i.): 5.3 % ID
- % ID kidneys (30 min p.i.): 2.2 % ID
- % ID kidneys (60 min p.i.): 1.6 % ID
- % ID liver (2 min p.i.): 26.5 % ID
- % ID liver (30 min p.i.): 16.0 % ID
- % ID liver (60 min p.i.): 11.9 % ID
- % ID lungs (2 min p.i.): 6.8 % ID
- % ID lungs (30 min p.i.): 1.8 % ID
- % ID lungs (60 min p.i.): 1.3 % ID
- 2 min - to- 30 min wash-out ratio (muscle): 0.46
- % ID muscle (muscle, 2 min p.i.): 11.1 % ID
- SUV muscle (muscle, 2 min p.i.): 0.26 SUV
- % ID muscle (muscle, 30 min p.i.): 24.1 % ID
- SUV muscle (muscle, 30 min p.i.): 0.56 SUV
- % ID muscle (muscle, 60 min p.i.): 21.4 % ID
- SUV muscle (muscle, 60 min p.i.): 0.48 SUV
- 2 min - to- 30 min wash-out ratio (rest of cerebrum): 2.71
- % ID rest of cerebrum (rest of cerebrum, 2 min p.i.): 0.944 % ID
- SUV rest of cerebrum (rest of cerebrum, 2 min p.i.): 1.79 SUV
- % ID rest of cerebrum (rest of cerebrum, 30 min p.i.): 0.323 % ID
- SUV rest of cerebrum (rest of cerebrum, 30 min p.i.): 0.66 SUV
- % ID rest of cerebrum (rest of cerebrum, 60 min p.i.): 0.256 % ID
- SUV rest of cerebrum (rest of cerebrum, 60 min p.i.): 0.49 SUV
- % ID spleen + pancreas (2 min p.i.): 2.4 % ID
- % ID spleen + pancreas (30 min p.i.): 1.4 % ID
- % ID spleen + pancreas (60 min p.i.): 1.1 % ID
- % ID stomach (2 min p.i.): 2.3 % ID
- % ID stomach (30 min p.i.): 6.5 % ID
- % ID stomach (60 min p.i.): 12.3 % ID
- 2 min - to- 30 min wash-out ratio (striatum): 2.59
- % ID striatum (striatum, 2 min p.i.): 0.099 % ID
- SUV striatum (striatum, 2 min p.i.): 1.68 SUV
- % ID striatum (striatum, 30 min p.i.): 0.043 % ID
- SUV striatum (striatum, 30 min p.i.): 0.65 SUV
- % ID striatum (striatum, 60 min p.i.): 0.030 % ID
- SUV striatum (striatum, 60 min p.i.): 0.49 SUV
- % ID urine (2 min p.i.): 0.1 % ID
- % ID urine (30 min p.i.): 0.5 % ID
- % ID urine (60 min p.i.): 11 % ID
- 2 min - to- 30 min wash-out ratio (whole cerebrum): 2.70
- SUV whole cerebrum (whole cerebrum, 2 min p.i.): 1.79 SUV
- SUV whole cerebrum (whole cerebrum, 30 min p.i.): 0.66 SUV
- SUV whole cerebrum (whole cerebrum, 60 min p.i.): 0.49 SUV
